Data on 80 molecules can be found in the METLIN SMRT retention time set (Domingo-Almenara et al. 2019).

This data set in a line: gradient 5% acetonitrile 3 min, to 50% in 2 min, to 85% in 15 min, held 3 min, 100 µL/min. To be noted: column: Zorbax Extend-C18 2.1 x 50 mm; eluents: water / acetonitrile, 0.1% formic acid. The method, boiled down:
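Over 3 months, pure standards in mixtures of ~100 molecules were run by HPLC coupled to a quadrupole time-of-flight mass spectrometer in positive and negative ionization mode. The column was a Zorbax Extend-C18 (2.1 × 50 mm, 1.8 μm) at 100 μL/min, eluted with water and acetonitrile each holding 0.1% formic acid, with 40 μL dead and 900 μL dwell volumes. Retention time was determined from adduct peaks chosen by software and checked manually.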
In turn, `COCCOC1CCC12CCN(Cc1ccccc1C#N)CC2` (stereo not given) registered an RP-LC retention time of 610 s.
On to `Cc1ccc(N2CCN(Cc3nc(-c4ccc(N5CCCCC5)nc4)no3)CC2)cc1`, for which the RP-LC retention time came to 901 s.
Consider `CCN(CC)CCN1C(=O)c2ccccc2NC1c1ccc(F)cc1` (stereo not given), for which the RP-LC retention time worked out at 641 s.
Then `CN1C(=O)c2cccnc2Sc2cc(NC(=O)COc3ccccc3)ccc21`, with 813 s.
Turning to `O=S(=O)(c1ccccc1)N1CC(n2cc(COc3ccc(F)cc3)nn2)C1`, the RP-LC retention time worked out at 888 s.
With `CC(=O)c1cccc(Nc2c(C(=O)N3CCCC3)cnc3nc(C)ccc23)c1`, the RP-LC retention time came out at 587 s.
`O=C(NCCc1cccs1)c1cc2n(n1)CCCN(Cc1cccc(F)c1)C2=O` came in with an RP-LC retention time of 843 s.
Molecule `Cn1c(=O)c(C(=O)NCc2ccc(F)cc2Cl)nc2cccnc21` gave an RP-LC retention time of 824 s.
As for `O=C(Cc1ccc(Cl)cc1)N1C[C@@H]2C[C@H]1C[C@@H]2NS(=O)(=O)c1cccs1`, the figure is 838 s; as for `Cc1cc(N2CCN(C(=O)c3ccc(Br)o3)CC2)nc(N2CCCC2)n1`, 636 s.
For the molecule `CCC(=O)Nc1ccc(CCc2nc3ccc(C(=O)NC4CCCCCC4)cc3[nH]2)cc1`, the RP-LC retention time amounted to 671 s.
As for `COc1ccccc1CCC(=O)Nc1cc(-c2cccnc2)no1`, the figure is 781 s; as for `Cc1ccccc1OCC(=O)N1CCN(c2nc(CN3CCOCC3)cs2)CC1`, 653 s; as for `Cc1oc(-c2[nH]ncc2C(=O)N2CCCC2)cc1S(=O)(=O)Nc1cc(F)ccc1F`, 699 s.
`CCCNC(=O)NCCC1CCN(S(=O)(=O)c2ccc(F)cc2)CC1`: the RP-LC retention time came out at 771 s.
For the molecule `Cc1ccc(-c2noc(Cn3ccnc3C)n2)cc1`, the RP-LC retention time was 629 s.
With `CC(C)c1nc2cc3c(cc2n1CC(=O)Nc1ccc2c(c1)OCCO2)OCCO3`, the RP-LC retention time came to 654 s.
In turn, `O=C(NCC(c1ccco1)N1CCN(c2ccc(F)cc2)CC1)c1ccsc1` (stereo not given) showed an RP-LC retention time of 603 s.
As to `COc1ccccc1-c1nc(Cn2ccnc2)no1`, the RP-LC retention time is 580 s.
Then `Cc1oc(-c2ccc(C(=O)NCCc3ccco3)cc2)nc1CN1CCc2ccccc21`, with 1050 s.
The molecule `COC(=O)c1c(NCc2ccc(F)cc2F)c2cccc(Cl)c2[nH]c1=O` yielded an RP-LC retention time of 822 s.
`O=C(NCc1ccc2c(c1)CCCN2C(=O)C1CCC1)c1ccc(C(F)(F)F)cc1` had an RP-LC retention time of 990 s.
Molecule `CC1CCN(CCNC(=O)c2nnc(-c3ccc(S(=O)(=O)N4CCCC4)cc3)o2)CC1` gave an RP-LC retention time of 634 s.
As for `Cc1ccccc1CNC(=O)C1(C)CCCN(C(=O)NCCc2ccccc2)C1` (stereo not given), the figure is 897 s; as for `CC(C)Cn1ccc2c(cc(C(=O)Nc3ccccc3Br)n2C)c1=O`, 881 s.
As to `CC1CCN(CCCNC(=O)C2CCN(S(=O)(=O)c3ccc4c(c3)sc(=O)n4C)CC2)CC1`, the RP-LC retention time is 1060 s.
The molecule `O=C(COc1ccccc1F)N1CCN(Cc2csc(-c3ccccc3)n2)CC1` came in with an RP-LC retention time of 606 s.
In turn, `Cc1c(Cl)cccc1NC(=O)N1C[C@H](c2nc(-c3ccncc3)no2)[C@@H](C)C1` showed an RP-LC retention time of 827 s.
As to `CC(C)CCn1nc2c(S(=O)(=O)N3CCCCC3)cccn2c1=O`, the RP-LC retention time stood at 906 s.
Take `Cc1ccn2cc(-c3ccc(NC(=O)c4cccc(I)c4)cc3)nc2n1`: the RP-LC retention time is 734 s.
`Cc1cc(C(=O)Nc2nc(-c3ccccc3)cs2)ccc1[N+](=O)[O-]` gave an RP-LC retention time of 1080 s.
`Cc1ccccc1NC(=O)c1cc(C(C)C)n2nccc2n1`: the RP-LC retention time was 1090 s.
As for `COc1ccc(-c2ccnc3nc(-c4cccs4)nn23)cc1OC`, the figure is 832 s.
As for `CCCOc1ccc(-c2noc(Cc3nc(-c4ccc(OC)c(OC)c4)cs3)n2)cc1`, the figure is 1220 s; as for `CCSc1ccccc1C(=O)NCC1CCN(C(=O)Oc2ccccc2)CC1`, 863 s.
`CC(C)c1nnc2n1CCN(C(=O)c1cc(-c3ccccc3)n[nH]1)C2` showed an RP-LC retention time of 647 s.
For `COc1cccc(Nc2nnc(CC(=O)N3CCSCC3)s2)c1`, the RP-LC retention time amounted to 676 s.
`CC1(C(=O)NCc2ccccc2)CN(S(C)(=O)=O)CC(=O)N1CCCc1ccccc1` (stereo not given): the RP-LC retention time was 856 s.
`Cc1ccc(-c2cn3c(CC(=O)NCc4cccs4)csc3n2)cc1C` returned an RP-LC retention time of 799 s.
`COCCCNC(=O)C1CCN(c2cncnc2N(C)C)CC1`: the RP-LC retention time stood at 568 s.
Molecule `O=C(NCC1CCCO1)c1cn(-c2ccc(S(=O)(=O)N3CCCC3)cn2)cn1` (stereo not given) gave an RP-LC retention time of 705 s.
Turning to `O=C(Cn1nc2c(N3CCc4ccccc4C3)nccn2c1=O)NCCC1=CCCCC1`, the RP-LC retention time was 984 s.
On to `O=C(NCc1ccccc1)c1ccc(NC(=O)C2CCC2)cc1N1CCOCC1`, for which the RP-LC retention time amounted to 842 s.
In turn, `Cc1cc(OCCCS(C)(=O)=O)cc(C)c1-c1cccc(COc2ccc3c(c2)OC[C@H]3CC(=O)O)c1` returned an RP-LC retention time of 1040 s.
Then `CN(C)C(CNC(=O)c1cc(-c2ccccc2)on1)c1cccs1` (stereo not given), with 663 s.
The molecule `Nc1ccc(-c2ccc3ncc4ccc(=O)n(-c5cccc(C(F)(F)F)c5)c4c3c2)cn1` yielded an RP-LC retention time of 653 s.
Molecule `Cc1nc(-c2ccc(C(=O)NC3CCCC3)cc2)cs1` gave an RP-LC retention time of 825 s.
With `CCOC(=O)C1CCN(C(=O)c2nc(N(CC)CC)c3c(C)cc(C)nc3n2)CC1`, the RP-LC retention time is 657 s.
As to `Cc1ccc(NC(=O)N2CCC(n3cnc4ccccc4c3=O)CC2)c(C)c1`, the RP-LC retention time was found to be 751 s.
`COc1ccc(Cn2c(=O)c3sccc3n(Cc3nc(-c4cccc(C)c4)no3)c2=O)cc1` showed an RP-LC retention time of 1160 s.
For the molecule `Cc1ccc(O)c(NC(=O)c2nc3nc(C)cc(C(F)F)n3n2)c1`, the RP-LC retention time amounted to 762 s.
On to `COc1cccc(C(=O)NCCOc2cccc(C(F)(F)F)c2)c1OC`, for which the RP-LC retention time is 972 s.
In turn, `CCC(=O)NCC[C@@H]1CCc2ccc3c(c21)CCO3` returned an RP-LC retention time of 833 s.
Regarding `Cc1ccc2c(c1)N(Cc1cc(F)cc(F)c1)N=C(C(=O)N1CCC(C)CC1)S2(=O)=O`, the RP-LC retention time is 1080 s.
Then `Cc1ccc(CN2CCn3nnc(CCC(=O)N4CCCC4)c3C2)s1`, with 651 s; and `O[C@@H]1C[C@@H](c2nnc3n2CCN(Cc2ccccn2)C3)N(Cc2ccccc2)C1`, with 537 s; and `CCS(=O)(=O)N1CCC(c2noc(COCCOC)n2)CC1`, with 681 s.
Then `CC(C)CN1CCn2cc(S(=O)(=O)Nc3ccc(F)c(F)c3)cc2C1=O`, with 842 s; and `CCNC(=O)C1CCCN(c2nc3ncn(CC(=O)Nc4cc(F)ccc4F)c(=O)c3s2)C1` (stereo not given), with 685 s.
`CCc1ccc(NC(=O)N(C)CC2CCOC2)cc1` (stereo not given) came in with an RP-LC retention time of 739 s.
Molecule `CCc1ccccc1NC(=O)Cn1c(N)nc(C)cc1=O` displayed an RP-LC retention time of 584 s.
With `Cc1ccc(C2Cn3nc(-c4nc(-c5ccccc5)no4)cc3CO2)cc1` (stereo not given), the RP-LC retention time came to 1260 s.
`Cc1cc2nn(CC(=O)N3CCCC3)c(=O)n2c(-c2ccc(C(F)(F)F)cc2)n1` registered an RP-LC retention time of 774 s.
Turning to `Cc1ccc(C)c(NC(=O)C2CCCN(c3ncnc4c3nc3n4CCCCC3)C2)c1` (stereo not given), the RP-LC retention time stood at 793 s.
As for `CCOc1ccc(CNC(=O)c2sccc2S(=O)(=O)N(C)c2ccc(OCC)cc2)cc1`, the figure is 1170 s.
Molecule `Cc1cc(-c2nnc(C3CCC3)o2)c(C)n1CC(=O)NCc1ccccc1C(F)(F)F` yielded an RP-LC retention time of 960 s.
As to `COc1ccc(NC(=O)C2(C)Oc3cccnc3N(C(C)C)C2=O)c(OC)c1` (stereo not given), the RP-LC retention time amounted to 1010 s.
Then `CCOC(=O)c1[nH]c2ccc(OC)cc2c1NC(=S)N1CCN(c2ccccn2)CC1`, with 610 s; and `Cc1ccccc1CNC(=O)C1(C)CCN(S(=O)(=O)c2cccc(Cl)c2C)CC1`, with 1090 s; and `Cc1ccn2cc(-c3ccc(NC(=O)c4ccco4)cc3)nc2n1`, with 596 s.
As for `CCOc1ccccc1-c1nc(-c2cn(-c3cccc(F)c3)nn2)no1`, the RP-LC retention time was found to be 936 s.
As for `COCCNC(=O)Cn1nc2cc(C)nc(-c3ccc(C(F)(F)F)cc3)n2c1=O`, the figure is 726 s.
Then `Cc1ccccc1Cn1c(CN2CCC(C(=O)NCCc3ccco3)CC2)cc2ccccc21`, with 805 s; and `CN1CCn2cc(S(=O)(=O)NCc3cc(F)cc(F)c3)cc2C1=O`, with 691 s; and `COc1ccc(-c2nc(-c3cccc(-c4ccnn4C)c3)no2)cc1F`, with 1130 s.
Consider `O=C([C@@H]1C[C@H](F)CN1C(=O)c1cccc(Br)c1)N1CCCCC1`, for which the RP-LC retention time was determined as 742 s.
On to `O=C(c1cc(C2CC2)[nH]n1)N1CC(n2cc(COc3ccc(F)cc3)nn2)C1`, for which the RP-LC retention time is 735 s.
For the molecule `CCc1cc(C(=O)NCC2CCCO2)nc2cc(-c3ccccn3)nn12` (stereo not given), the RP-LC retention time came out at 739 s.
`O=C(Nc1nnc(SCc2c(F)cccc2Cl)s1)c1cc(C2CC2)on1` returned an RP-LC retention time of 1010 s.
For `Cc1nc2c(sc3nc(-c4ccccc4)ccc32)c(=O)n1CC(=O)NCc1ccc(F)cc1`, the RP-LC retention time is 994 s.
